{"source": "patent US12329739B2", "about": "“Isoflavonoid compounds and methods for the treatment of cancer” (Aardvark Therapeutics, Inc., priority 2010, dated 2025)", "key": {"[1]": {"system": "MDA-MB-468", "experiment": "MTT proliferation assay, MDA-MB-468", "type": "cell-based, human", "experimental": "The human gastric cancer cell line AGS (CRL-1739) was cultured in Hams F-12K (Kaighans modification) medium containing 2 mM L-glutamine, 2.5 g/L sodium bicarbonate and 2 mM sodium pyruvate. The human breast adenocarcinoma line MDA-MB-468 (HTB-132) was cultured in DMEM:F12 (1:1) medium containing 2.5 mM L-glutamine, 2.4 g/L sodium bicarbonate, supplemented with an additional 2 mM L-glutamine.\n(§1) Proliferation Assays. IC50 values were determined for each cell line. Cells were seeded in 96-well plates at an appropriate cell density as determined from growth kinetics analysis and cultured for 5 days in the absence and presence of the test compounds. Cell proliferation was assessed after the addition of 20 μl of 3-4,5 dimethylthiazol-2,5-diphenyl tetrazolium bromide (MTT, 5 mg/ml in PBS, Sigma) for 5 hrs at 37° C. according to manufacturer's instructions. IC50 values were calculated from semi-log plots of % of control proliferation on the y-axis against log dose on the x-axis.\n(§2) Anti-proliferative Activity of Isoflavonoid Derivatives. IC50 values were determined for each cell line after 120 h of exposure."}, "[2]": {"system": "PC3", "experiment": "MTT proliferation assay, PC3", "type": "cell-based", "experimental": "as §1, §2"}, "[3]": {"system": "A2780", "experiment": "MTT proliferation assay, A2780", "type": "cell-based", "experimental": "as §1, §2"}, "[4]": {"system": "A2058", "experiment": "MTT proliferation assay, A2058", "type": "cell-based", "experimental": "as §1, §2"}, "[5]": {"system": "LNCaP", "experiment": "MTT proliferation assay, LNCaP", "type": "cell-based", "conditions": "Homo sapiens, Prostate, 120 h of exposure", "experimental": "as §1, §2"}, "[6]": {"system": "HepG2", "experiment": "MTT proliferation assay, HepG2", "type": "cell-based, human", "conditions": "Homo sapiens; Liver, HepG2, 120 h of exposure", "experimental": "(§3) The human hepatocellular carcinoma lines HepG2 (HB-8065), SK-HEP-1 (HTB-52) and the normal human lung fibroblast line IMR-90 (CCL-186) were cultured in Minimum Essential Eagles Medium containing 2 mM L-glutamine, 2.2 g/L sodium bicarbonate, supplemented with 1 mM sodium pyruvate and 0.1 mM non-essential amino acids. The human hepatocellular carcinoma line JHH-1 (JCRB1062) was cultured in Williams E Medium (Invitrogen) containing 2.2 g/L sodium bicarbonate, supplemented with 2 mM L-glutamine. The hepatocellular carcinoma line HuH-7 (JCRB0403) was cultured in DMEM, supplemented with 2 mM L-glutamine.\nas §1, §2"}, "[7]": {"system": "SK-Hep-1", "experiment": "MTT proliferation assay, SK-Hep-1", "type": "cell-based, human", "conditions": "Homo sapiens, SK-HEP1; Liver, SK-Hep-1, 120 h of exposure", "experimental": "as §3, §1, §2"}, "[8]": {"system": "A2780 ovarian cancer cells", "experiment": "Combination with carboplatin, proliferation of A2780 cells", "type": "cell-based", "conditions": "0.5, 1 and 5 μM of compound plus 0.4 μM carboplatin"}, "[9]": {"system": "A2780 ovarian cancer cells", "experiment": "Combination with carboplatin, proliferation of A2780 cells", "type": "cell-based", "experimental": "In vitro toxicity in normal and cancer cells. Cells were seeded in 96-well plates at an appropriate cell density as determined from growth kinetics analysis. Depending on the plating efficiency and lag phase of individual cell lines, cells were allowed to plate down prior to drug exposure. Intra-experimental single agent controls were included to ensure IC50 values obtained for each cell line matched previous IC50 determinations. Four analogue concentrations were employed in each analysis. Analogue concentrations used in each assay were chosen based on IC50 values, which formed the top concentration of analogue used. Subsequent concentrations were chosen based on simple ½ or 1/10 dilutions of the top analogue concentration employed (i.e. 2, 1, 0.5, 0.25 μM). Nine 1/10 serial dilutions of chemotherapeutic were employed with the top chemotherapeutic concentration being 50 μM.\nFor combined analysis, analogue concentrations were held constant through 1/10 serial dilutions of chemotherapeutic in growth medium (top chemotherapeutic concentration employed was 50 μM). Combined cultures were cultured for 5 days.\nThe sequence of administration effect of each agent on chemotherapeutic IC50 values was assessed by exposing plated cells to a single agent in sequence for 24 hr. To assess the isoflavonoid derivative→chemotherapeutic sequence, plated cells were first exposed to the appropriate analogue concentrations and incubated at 37° C. for 24 hr. Cells were washed with growth medium and then exposed to the appropriate chemotherapeutic concentrations and incubated for 24 hr. Cells were then washed and incubated for a further 3 days. To assess the chemotherapeutic→isoflavonoid derivative sequence, the procedure was reversed.\nCell proliferation was assessed after the addition of 20 μl of 3-4,5 dimethylthiazol-2,5-diphenyl tetrazolium bromide (MTT, 2.5 mg/ml in PBS, Sigma) for 3-4 hrs at 37° C. according to manufacturer's instructions. IC50 values were calculated from semi-log plots of % of control proliferation on the y-axis against log dose on the x-axis.\n3-D model analysis of the cytotoxic interaction between drug A and drug B enables the representation of predicted inhibitory effect of two drugs in combination in 3 dimensions to reveal actual regions of synergy or antagonism. The 3D synergy plots are based on a theory of “Theoretical Additivity” (TA or […]) as outlined by Kanzawa et al. Theoretical Additivity was calculated from the cytotoxicities of drug A and drug B as monotherapies using the following formula which assumes the drugs are mutually exclusive inhibitors: […]\nThe TA is calculated for each combination of drug concentrations and subtracted from the observed experimental effect for each combination to give a measurement of synergistic or enhanced action.\nCombination index (CI) analysis, which employs the median-effect principle correlating drug dose to cytotoxicity, was also employed to assess synergy. The median-effect equation is utilized to calculate the dose of a drug that inhibits “x” percent of cells (Chou and Talalay, 1984). D=Dm[fa/(1−fa)]^1/m\nIn vitro Assessment of Combination of Optically Active Compound 31 and Carboplatin. Combination studies employed both 24 hr concurrent exposure, and 24 hr sequential exposure (racemic compound 32→Carboplatin) regimens. In both studies, four analogue concentrations (0.25, 0.5, 1 and 5 μM) were held constant against titrated carboplatin. When 1 and 5 μM of compound 32 was assessed in combination with the lowest concentration of carboplatin employed in this study (0.4 μM), no IC50 for carboplatin was achieved due the high levels of cell kill observed (30-40% of control)."}}}
{"compound": "Oc1ccc([C@H]2c3ccc(O)cc3OC[C@H]2c2ccc(O)cc2)cc1", "note": "[Compound 31, d-cis-3-(4-hydroxyphenyl)-4-(4-hydroxyphenyl)chroman-7-ol]", "values": [{"measurement": "IC50", "setting": "[1]; Homo sapiens, MDA-MB-468, 120 h, Breast, MDA-MB-468, 120 h of exposure", "value": "≤ 150", "unit": "nM"}, {"measurement": "IC50", "setting": "[1]; Table 2, Breast, MDA-MB-468, 120 hrs of exposure", "value": "≤ 150", "unit": "nM"}, {"measurement": "IC50", "setting": "[2]; Homo sapiens, PC-3, 120 h, Prostate, PC3, 120 h of exposure", "value": "150 to 500", "unit": "nM"}, {"measurement": "IC50", "setting": "[2]; Table 2, Prostate, PC3, 120 hrs of exposure", "value": "150 to 500", "unit": "nM"}, {"measurement": "anti-proliferative activity against various cancer cells compared with racemic (compound 32) and l-form (compound 33)", "setting": "[3]; 120 hrs of exposure, various cancer cells (Table 2)", "value": "superior anti-proliferative activity"}, {"measurement": "IC50", "setting": "[3]; Homo sapiens, A2780, 120 h, Ovarian, A2780, 120 h of exposure", "value": "150 to 500", "unit": "nM"}, {"measurement": "IC50", "setting": "[3]; Table 2, Ovarian, A2780, 120 hrs of exposure", "value": "150 to 500", "unit": "nM"}, {"measurement": "IC50", "setting": "[4]; Homo sapiens, A2058, 120 h, Melanoma, A2058, 120 h of exposure", "value": "≤ 150", "unit": "nM"}, {"measurement": "IC50", "setting": "[4]; Table 2, Melanoma, A2058, 120 hrs of exposure", "value": "≤ 150", "unit": "nM"}, {"measurement": "IC50", "setting": "[5]", "value": "150 to 500", "unit": "nM"}, {"measurement": "IC50", "setting": "[6]", "value": "150 to 500", "unit": "nM"}, {"measurement": "IC50", "setting": "[7]", "value": "150 to 500", "unit": "nM"}, {"measurement": "cell kill level observed (no IC50 for carboplatin achieved)", "setting": "[8]", "value": "25-40 % of control"}, {"measurement": "enhancement of the anti-cancer effect of carboplatin", "setting": "[9]; 0.25 μM of compound, A2780, depending on exposure regimen (24 hr concurrent or sequential)", "value": "7-11 fold"}, {"measurement": "potency of the inhibition of proliferation compared with compound 34", "setting": "[9]; 0.5 μM of compound in combination with carboplatin, A2780", "value": "superior"}, {"measurement": "compound concentration giving maximal activity enhancement with carboplatin", "setting": "[9]; 3D method of Kanzawa, 12.5 μM carboplatin, A2780", "value": 0.25, "unit": "µM"}, {"measurement": "activity enhancement in combination with carboplatin", "setting": "[9]; A2780 cell line, 31 compared with compound 32", "value": "superior in its ability to augment carboplatin toxicity"}, {"measurement": "retardation of A2780 cell proliferation compared with compound 34", "setting": "[9]; sequential exposure (24 h), 0.25 μM of compound followed by carboplatin", "value": "superior retardation of A2780 cell proliferation"}]}
